{"source": "PubChem BioAssay AID272", "about": "(DTP/NCI, 2004)", "test_system": "Lewis lung carcinoma i.m., BDF1 mice, T/C %", "experiment": "NCI In Vivo Anticancer Drug Screen. Data for tumor model Lewis Lung Carcinoma (intramuscular) in B6D2F1 (BDF1) mice", "outline": "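Value is the ratio of a treated-group measurement (T) to the matching vehicle-control measurement (C), using either survival or tumour size in mice bearing transplanted tumours.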", "key": {"[1]": {"conditions": "endpoint: mean tumor weight, dose: 12.5 mg/kg/injection, schedule: Q01DX011 (ip), vehicle: saline with Tween-80, higher = larger tumour"}, "[2]": {"conditions": "endpoint: median survival time, dose: 12.5 mg/kg/injection, schedule: Q01DX011 (ip), vehicle: saline with Tween-80, higher = longer survival"}, "[3]": {"conditions": "endpoint: median survival time, dose: 100.0 mg/kg/injection, schedule: Q01DX011 (ip), vehicle: saline with Tween-80, higher = longer survival"}}, "note": "Values joined by “and” are separate entries in the source; they are usually repeats but may differ in a detail not shown here. Equal entries are not always repeated. Results filed as inconclusive are left out.", "data": [{"smiles": "CC(=O)[C@@]1(O)CC[C@H]2[C@@H]3C[C@H](C)C4=CC(=O)C=C[C@]4(C)[C@@]3(F)[C@@H](O)C[C@@]21C", "values": [{"measurement": "T/C", "setting": "endpoint: mean tumor weight, dose: 12.5 mg/kg/injection, schedule: Q01DX011 (ip), vehicle: steriod suspending solution, higher = larger tumour", "result": "40 % of control"}, {"measurement": "T/C", "setting": "endpoint: mean tumor weight, dose: 25.0 mg/kg/injection, schedule: Q01DX011 (ip), vehicle: steriod suspending solution, higher = larger tumour", "result": "26 % of control"}, {"measurement": "T/C", "setting": "endpoint: mean tumor weight, dose: 50.0 mg/kg/injection, schedule: Q01DX011 (ip), vehicle: steriod suspending solution, higher = larger tumour", "result": "19 % of control"}, {"measurement": "T/C", "setting": "endpoint: median survival time, dose: 12.5 mg/kg/injection, schedule: Q01DX011 (ip), vehicle: steriod suspending solution, higher = longer survival", "result": "107 % of control"}, {"measurement": "T/C", "setting": "endpoint: median survival time, dose: 25.0 mg/kg/injection, schedule: Q01DX011 (ip), vehicle: steriod suspending solution, higher = longer survival", "result": "94 % of control and 112 % of control"}]}, {"smiles": "C=CCNC(=O)NCC=C", "values": [{"measurement": "T/C", "setting": "endpoint: mean tumor weight, dose: 6.25 mg/kg/injection, schedule: Q01DX011 (ip), vehicle: saline with Tween-80, higher = larger tumour", "result": "74 % of control"}, {"measurement": "T/C", "setting": "[1]", "result": "69 % of control"}, {"measurement": "T/C", "setting": "endpoint: mean tumor weight, dose: 25.0 mg/kg/injection, schedule: Q01DX011 (ip), vehicle: saline with Tween-80, higher = larger tumour", "result": "73 % of control"}, {"measurement": "T/C", "setting": "endpoint: mean tumor weight, dose: 50.0 mg/kg/injection, schedule: Q01DX011 (ip), vehicle: saline with Tween-80, higher = larger tumour", "result": "76 % of control"}, {"measurement": "T/C", "setting": "endpoint: mean tumor weight, dose: 100.0 mg/kg/injection, schedule: Q01DX011 (ip), vehicle: saline with Tween-80, higher = larger tumour", "result": "80 % of control"}, {"measurement": "T/C", "setting": "endpoint: median survival time, dose: 6.25 mg/kg/injection, schedule: Q01DX011 (ip), vehicle: saline with Tween-80, higher = longer survival", "result": "113 % of control"}, {"measurement": "T/C", "setting": "[2]", "result": "108 % of control"}, {"measurement": "T/C", "setting": "endpoint: median survival time, dose: 25.0 mg/kg/injection, schedule: Q01DX011 (ip), vehicle: saline with Tween-80, higher = longer survival", "result": "113 % of control"}, {"measurement": "T/C", "setting": "endpoint: median survival time, dose: 50.0 mg/kg/injection, schedule: Q01DX011 (ip), vehicle: saline with Tween-80, higher = longer survival", "result": "86 % of control"}, {"measurement": "T/C", "setting": "[3]", "result": "100 % of control"}]}, {"smiles": "N#CSCc1ccc(Cl)cc1Cl", "values": [{"measurement": "T/C", "setting": "endpoint: mean tumor weight, dose: 25.0 mg/kg/injection, schedule: Q01DX011 (ip), vehicle: saline, higher = larger tumour", "result": "75 % of control"}, {"measurement": "T/C", "setting": "endpoint: mean tumor weight, dose: 50.0 mg/kg/injection, schedule: Q01DX011 (ip), vehicle: saline, higher = larger tumour", "result": "56 % of control"}, {"measurement": "T/C", "setting": "endpoint: mean tumor weight, dose: 100.0 mg/kg/injection, schedule: Q01DX011 (ip), vehicle: saline, higher = larger tumour", "result": "25 % of control"}, {"measurement": "T/C", "setting": "endpoint: mean tumor weight, dose: 200.0 mg/kg/injection, schedule: Q01DX011 (ip), vehicle: saline, higher = larger tumour", "result": "47 % of control"}, {"measurement": "T/C", "setting": "endpoint: median survival time, dose: 25.0 mg/kg/injection, schedule: Q01DX011 (ip), vehicle: saline, higher = longer survival", "result": "86 % of control"}, {"measurement": "T/C", "setting": "endpoint: median survival time, dose: 50.0 mg/kg/injection, schedule: Q01DX011 (ip), vehicle: saline, higher = longer survival", "result": "95 % of control"}, {"measurement": "T/C", "setting": "endpoint: median survival time, dose: 100.0 mg/kg/injection, schedule: Q01DX011 (ip), vehicle: saline, higher = longer survival", "result": "119 % of control"}, {"measurement": "T/C", "setting": "endpoint: median survival time, dose: 200.0 mg/kg/injection, schedule: Q01DX011 (ip), vehicle: saline, higher = longer survival", "result": "106 % of control"}]}, {"smiles": "COc1ccc2c(Nc3ccc(NS(C)(=O)=O)cc3)c3ccccc3nc2c1", "values": [{"measurement": "T/C", "setting": "[1]", "result": "52 % of control"}, {"measurement": "T/C", "setting": "[2]", "result": "107 % of control"}]}, {"smiles": "CC(=O)C(O)N1C(=O)C=CC1=O", "note": "(configuration not stated)", "values": [{"measurement": "T/C", "setting": "endpoint: median survival time, dose: 0.62 mg/kg/injection, schedule: Q01DX011 (ip), vehicle: water, higher = longer survival", "result": "88 % of control"}, {"measurement": "T/C", "setting": "endpoint: median survival time, dose: 1.25 mg/kg/injection, schedule: Q#A X022 (ip), vehicle: water, higher = longer survival", "result": "120 % of control"}, {"measurement": "T/C", "setting": "endpoint: median survival time, dose: 2.5 mg/kg/injection, schedule: Q01DX011 (ip), vehicle: water, higher = longer survival", "result": "123 % of control"}, {"measurement": "T/C", "setting": "endpoint: median survival time, dose: 2.5 mg/kg/injection, schedule: Q#A X022 (ip), vehicle: water, higher = longer survival", "result": "120 % of control"}, {"measurement": "T/C", "setting": "endpoint: median survival time, dose: 5.0 mg/kg/injection, schedule: Q#A X022 (ip), vehicle: water, higher = longer survival", "result": "113 % of control"}]}, {"smiles": "Nc1nc(CCl)nc(Nc2ccccc2)n1", "values": [{"measurement": "T/C", "setting": "endpoint: mean tumor weight (est.), dose: 100.0 mg/kg/injection, schedule: Q01DX011 (ip), vehicle: saline with Tween-80, higher = larger tumour", "result": "61 % of control"}, {"measurement": "T/C", "setting": "[3]", "result": "100 % of control"}]}]}
